The source made the active and inactive calls. The rule behind the calls is not given here.
Assays:
[1] = tested on: Plasmodium falciparum; assay: Antimalarial activity against synchronized Plasmodium falcipuram 3D7 infected in human RBC assessed as fold reduction in reinvasion of ring stage parasites at 40 nM incubated for 12 hrs followed by compound washout and replacement with fresh medium without compounds and measured at 50 hrs post infection by flow cytometry; assay type: functional
[2] = tested on: Plasmodium falciparum; assay: Antimalarial activity against wild-type Plasmodium falcipuram 3D7 infected in human RBC assessed as reduction in parasitemia in blood smear by measuring parasite survival ratio at ring stage at upto 700 nM incubated for 6 hrs followed by compound washout and replacement with fresh medium without compounds and measured after 66 hrs by ring stage survival assay; assay type: functional; conditions: dose nM <=700, time 6.0 hrs
[3] = tested on: Plasmodium falciparum; assay: Antimalarial activity against synchronized Plasmodium falcipuram 3D7 infected in human RBC assessed as irreversible inhibition of parasite growth at schizont stage at 40 nM treated 29 to 41 hpi incubated for 12 hrs followed by compound washout and replacement with fresh medium without compounds and measured after 4 days by flow cytometry; assay type: functional, organism-based
[4] = tested on: Plasmodium falciparum; assay: In vivo inhibition of C-terminal TY1 fused HDAC2 in Plasmodium falcipuram 3D7 assessed as inhibition of parasite growth incubated for 4 hrs followed by compound washout and replacement with fresh medium with compounds measured after 68 hrs by SYBR Green I staining based fluorescence analysis; assay type: functional, organism-based
[5] = tested on: Plasmodium falciparum; assay: Antimalarial activity against early stage (II) Plasmodium falciparum NF54 gametocytes transfected with p230p-Luc assessed as reduction in gametocyte viability incubated for 48 hrs by luciferase reporter gene based bioluminescence assay; assay type: functional, organism-based; conditions: NF54, 48 h
[6] = Toxicity in BALB/c mouse infected with blood stage Plasmodium yoelii assessed as animal death at 30 to 90 mg/kg, ip qd for 5 days and measured on day 60; assay type: organism-based; conditions: in vivo, 1440 h, dose 30-90 mg/kg, time 60 day
[7] = tested on: Plasmodium falciparum; assay: Antimalarial activity against asexual blood stage wild-type Plasmodium falciparum 3D7 assessed as parasite growth inhibition incubated for 72 hrs by SYBR Green I staining based fluorescence analysis; assay type: functional, organism-based; conditions: 3D7, 72 h
[8] = tested on: Plasmodium falciparum; assay: Antimalarial activity against ART-resistant Plasmodium falcipuram 6320 harbouring C580Y mutant infected in human RBC assessed as reduction in parasitemia in blood smear by measuring parasite survival ratio at ring stage at upto 700 nM incubated for 6 hrs followed by compound washout and replacement with fresh medium without compounds and measured after 66 hrs by ring stage survival assay; assay type: functional; conditions: dose nM <=700, time 6.0 hrs
[9] = biological target: Histone deacetylase 3 (Homo sapiens, UniProt O15379); assay: Inhibition of human C-terminal His tagged HDAC3 (1 to 428 residues) expressed in baculovirus-infected Sf9 cells using Ac-peptide as substrate incubated for 4 hrs
[10] = tested on: Plasmodium falciparum; assay: In vivo inhibition of C-terminal glmS fused HDAC2 in Plasmodium falcipuram 3D7 assessed as inhibition of parasite growth incubated for 4 hrs followed by compound washout and replacement with fresh medium with compounds measured after 68 hrs by SYBR Green I staining based fluorescence analysis; assay type: functional, organism-based
[11] = tested on: Plasmodium falciparum; assay: Antimalarial activity against late stage (IV) Plasmodium falciparum NF54 gametocytes transfected with p230p-Luc assessed as reduction in gametocyte viability incubated for 48 hrs by luciferase reporter gene based bioluminescence assay; assay type: functional, organism-based; conditions: NF54, 48 h
[12] = biological target: Histone deacetylase 1 (Homo sapiens, UniProt Q13547); assay: Inhibition of recombinant human full length C-terminal His/FLAG tagged HDAC1 (1 to 482 residues) expressed in baculovirus-infected Sf9 cells using Ac-peptide as substrate incubated for 4 hrs
[13] = tested on: Plasmodium falciparum; assay: Inhibition of Plasmodium falcipuram recombinant HDAC1 using HDAC-Glo I/II as substrate at 50 to 800 nM preincubated for 90 mins by luminescence based microplate reader analysis; conditions: dose 50-800 nM
[14] = tested on: Plasmodium falciparum; assay: Antimalarial activity against blood stage asynchronous Plasmodium falcipuram 3D7 assessed as suppression of parasite reproduction by measuring parasitemia at 10 nM incubated for 24 hrs followed by compound washout and replacement with fresh medium without compounds and measured after 4 days by flow cytometry; assay type: functional
[15] = Drug concentration in BALB/c mouse plasma at 5 mg/kg, ip measured upto 24 hrs by LC-MS/MS analysis; assay type: ADME, organism-based
[16] = Apparent volume of distribution in BALB/c mouse at 5 mg/kg, ip measured after upto 24 hrs by LC-MS/MS analysis; assay type: ADME, organism-based; conditions: in vivo, read-out: Vz/F
[17] = tested on: Plasmodium falciparum; assay: Antimalarial activity against asexual blood stage chloroquine-resistant Plasmodium falcipuram GB4 assessed as parasite growth inhibition incubated for 72 hrs by SYBR Green I staining based fluorescence analysis; assay type: functional, organism-based; conditions: GB4, 72 h
[18] = In vivo inhibition of C-terminal glmS fused HDAC1 in Plasmodium falcipuram 3D7 assessed as inhibition of parasite growth incubated for 4 hrs followed by compound washout and replacement with fresh medium with compounds measured after 68 hrs by SYBR Green I staining based fluorescence analysis; assay type: functional, organism-based, Plasmodium falciparum
[19] = Metabolic stability in mouse liver microsomes assessed as half life at […] incubated for 45 mins in presence of NADPH by LC/MS analysis; assay type: ADME, Microsome; conditions: liver microsomes
[20] = Selectivity index, ratio of IC50 for cytotoxicity against human HepG2 cells to IC50 for antimalarial activity against asexual blood stage wild-type Plasmodium falciparum 3D7; assay type: toxicity, cell-based; conditions: read-out: Ratio IC50
[21] = Metabolic stability in mouse liver microsomes assessed as intrinsic clearance at […] incubated for 45 mins in presence of NADPH by LC/MS analysis; assay type: ADME, Microsome; conditions: read-out: CLH
[22] = tested on: Plasmodium falciparum; assay: Antimalarial activity against asexual blood stage sulfadoxine-pyrimethamine/mefloquine-resistant Plasmodium falcipuram CP286 assessed as parasite growth inhibition incubated for 72 hrs by SYBR Green I staining based fluorescence analysis; assay type: functional, organism-based; conditions: CP286, 72 h
[23] = Apparent clearance in BALB/c mouse at 5 mg/kg, ip measured after upto 24 hrs by LC-MS/MS analysis; assay type: ADME, organism-based; conditions: in vivo, read-out: CLz/F (converted)
[24] = tested on: Plasmodium yoelii; assay: Antimalarial activity against blood stage Plasmodium yoelii infected in BALB/c mouse assessed as parasite killing by measuring parasitemia at 30 to 90 mg/kg, ip qd for 5 days and measured on day 60; assay type: functional, organism-based; conditions: dose 30-90 mg/kg, time 60.0 day
[25] = tested on: Plasmodium falciparum; assay: In vivo inhibition of C-terminal glmS fused HDAC1 in Plasmodium falcipuram 3D7 assessed as inhibition of parasite growth by measuring downregulation of RBC invasion-related genes expression level by RNA-seq analysis; assay type: functional, organism-based
[26] = biological target: T1, Histone deacetylase 8 (Homo sapiens) (UniProt Q9BY41); assay: Potency index, ratio of test compound IC50 to Quisinostat IC50 for inhibition of recombinant human full length C-terminal His-tagged HDAC8 expressed in baculovirus-infected Sf9 insect cells using Ac-peptide as substrate incubated for 4 hrs followed by trypsin addition and further incubated for 2 hrs
T1 sequence (whole entry): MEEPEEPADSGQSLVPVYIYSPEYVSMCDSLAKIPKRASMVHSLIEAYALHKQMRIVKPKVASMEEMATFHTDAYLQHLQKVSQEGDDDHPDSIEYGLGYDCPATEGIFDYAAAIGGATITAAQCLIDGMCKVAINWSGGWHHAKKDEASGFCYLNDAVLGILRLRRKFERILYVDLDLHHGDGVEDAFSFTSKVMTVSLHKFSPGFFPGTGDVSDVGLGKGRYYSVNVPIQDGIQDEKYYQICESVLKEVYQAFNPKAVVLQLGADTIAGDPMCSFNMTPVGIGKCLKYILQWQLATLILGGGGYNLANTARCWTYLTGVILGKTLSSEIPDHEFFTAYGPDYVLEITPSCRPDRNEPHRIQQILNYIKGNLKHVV

Histone deacetylase 3, sequence (O15379 whole entry, the tested form may be a part): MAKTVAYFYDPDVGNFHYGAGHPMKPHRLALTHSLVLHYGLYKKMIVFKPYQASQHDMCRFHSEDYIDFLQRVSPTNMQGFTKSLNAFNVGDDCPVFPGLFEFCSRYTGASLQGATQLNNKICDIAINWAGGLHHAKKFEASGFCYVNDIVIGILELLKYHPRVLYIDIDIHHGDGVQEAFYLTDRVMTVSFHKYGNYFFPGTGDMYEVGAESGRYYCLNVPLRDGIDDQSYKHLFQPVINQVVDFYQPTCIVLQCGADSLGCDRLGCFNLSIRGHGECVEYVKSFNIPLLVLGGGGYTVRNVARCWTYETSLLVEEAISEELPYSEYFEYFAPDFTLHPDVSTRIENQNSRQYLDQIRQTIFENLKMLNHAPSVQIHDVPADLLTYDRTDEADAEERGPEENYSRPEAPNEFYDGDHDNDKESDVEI
Histone deacetylase 1, sequence (Q13547 whole entry, the tested form may be a part): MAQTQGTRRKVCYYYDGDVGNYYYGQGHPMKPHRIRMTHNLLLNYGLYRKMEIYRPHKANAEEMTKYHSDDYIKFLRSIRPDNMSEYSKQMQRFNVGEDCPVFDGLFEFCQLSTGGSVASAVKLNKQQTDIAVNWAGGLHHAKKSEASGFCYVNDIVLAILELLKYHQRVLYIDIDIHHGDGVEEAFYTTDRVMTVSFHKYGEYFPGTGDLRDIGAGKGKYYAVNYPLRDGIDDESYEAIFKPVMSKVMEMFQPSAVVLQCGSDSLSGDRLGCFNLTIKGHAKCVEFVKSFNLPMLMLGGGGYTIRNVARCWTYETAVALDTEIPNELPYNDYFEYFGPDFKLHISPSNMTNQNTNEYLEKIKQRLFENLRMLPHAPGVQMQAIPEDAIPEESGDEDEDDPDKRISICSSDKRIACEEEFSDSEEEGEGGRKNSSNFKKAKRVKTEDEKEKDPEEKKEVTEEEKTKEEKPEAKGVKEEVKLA

With Cl.Cn1cc(CN2CC3(CCN(c4ncc(C(=O)NO)cn4)C3)C2)c2ccc(C#N)cc21 the “fold change (FC)” value [1] was 10, the Activity [2] was “Active” and the Activity [3] was “Active”. For the same compound, the inhibition [4] was “Active”, the IC50 [5] was 15.4 nM and the Activity [6] was “Non-Toxic”. For the same compound, the IC50 [7] was 1.26 nM, the Activity [8] was “Active” and the IC50 [9] was 5.2 nM. The inhibition [10] was “Active”, the IC50 [11] was 12.4 nM and the IC50 [12] was 2.2 nM. The inhibition [13] was “Active”, the Activity [14] was 100% and the concentration at 24 h [15] was 0.089 µg/mL. For the same compound, the Vd/F [16] was 10.2 L/kg, the IC50 [17] was 3.06 nM and the IC50 [18] was 16.8 nM. The half-life [19] was 1.34 h, the selectivity ratio [20] was 810 and the CLint scaled [21] was 4.08 L/h/kg. For the same compound, the IC50 [22] was 5.85 nM, the CL/F [23] was 7.81 L/h/kg and the Activity [24] was “Active”. The inhibition [25] was “Active” and the Ratio IC50 [26] was 3.

Reference: ChEMBL document CHEMBL5046276 (J Med Chem, 2022)
